Read-outs that look alike come from different tables or passages of the source.
What was measured:
EGFR del19/T790M/C797S = EGFR del19/T790M/C797S (Homo sapiens, UniProt P00533, C797S/DEL746-750/T790M); assay: Biochemical EGFR kinase assay (Lance Ultra TR-FRET), del19/T790M/C797S
Protocol: (§1) Biochemical EGFR kinase assays were conducted using Lance Ultra time-resolved fluorescence resonance energy transfer (TR-FRET) technology from Perkin-Elmer. Compounds of the invention were initially diluted to 20 mM in 100% DMSO for storage and made into kinase buffer solution to create a compound concentration ranging from 0.003 μM and 10 μM.
(§2) Each kinase reactions were incubated at room temperature for 1 hour and then stopped by the addition of 4 μL of stop solution (10 mM EDTA). The specific Europium-labeled-anti-phosphopeptide antibody (PerkinElmer, AD0069) diluted in LANCE detection buffer was then added to a final concentration of 2 nM. After 60 minutes incubation at room temperature the LANCE signal was measured on an EnVision Multilabel Reader (Perkin-Elmer). Excitation wavelength was set at 320 nm and emission monitored at 615 nm (donor) and 665 nm (acceptor). The IC50 values were determined using GraphPad prism software (GraphPad Software, Inc., San Diego, CA, USA).

EGFR del19/C797S = EGFR del19/C797S (Homo sapiens, UniProt P00533, C797S/DEL746-750); assay: Biochemical EGFR kinase assay (Lance Ultra TR-FRET), del19/C797S
Chain of EGFR del19/C797S (P00533 with tags, fused parts or gaps DEL746-750/C797S): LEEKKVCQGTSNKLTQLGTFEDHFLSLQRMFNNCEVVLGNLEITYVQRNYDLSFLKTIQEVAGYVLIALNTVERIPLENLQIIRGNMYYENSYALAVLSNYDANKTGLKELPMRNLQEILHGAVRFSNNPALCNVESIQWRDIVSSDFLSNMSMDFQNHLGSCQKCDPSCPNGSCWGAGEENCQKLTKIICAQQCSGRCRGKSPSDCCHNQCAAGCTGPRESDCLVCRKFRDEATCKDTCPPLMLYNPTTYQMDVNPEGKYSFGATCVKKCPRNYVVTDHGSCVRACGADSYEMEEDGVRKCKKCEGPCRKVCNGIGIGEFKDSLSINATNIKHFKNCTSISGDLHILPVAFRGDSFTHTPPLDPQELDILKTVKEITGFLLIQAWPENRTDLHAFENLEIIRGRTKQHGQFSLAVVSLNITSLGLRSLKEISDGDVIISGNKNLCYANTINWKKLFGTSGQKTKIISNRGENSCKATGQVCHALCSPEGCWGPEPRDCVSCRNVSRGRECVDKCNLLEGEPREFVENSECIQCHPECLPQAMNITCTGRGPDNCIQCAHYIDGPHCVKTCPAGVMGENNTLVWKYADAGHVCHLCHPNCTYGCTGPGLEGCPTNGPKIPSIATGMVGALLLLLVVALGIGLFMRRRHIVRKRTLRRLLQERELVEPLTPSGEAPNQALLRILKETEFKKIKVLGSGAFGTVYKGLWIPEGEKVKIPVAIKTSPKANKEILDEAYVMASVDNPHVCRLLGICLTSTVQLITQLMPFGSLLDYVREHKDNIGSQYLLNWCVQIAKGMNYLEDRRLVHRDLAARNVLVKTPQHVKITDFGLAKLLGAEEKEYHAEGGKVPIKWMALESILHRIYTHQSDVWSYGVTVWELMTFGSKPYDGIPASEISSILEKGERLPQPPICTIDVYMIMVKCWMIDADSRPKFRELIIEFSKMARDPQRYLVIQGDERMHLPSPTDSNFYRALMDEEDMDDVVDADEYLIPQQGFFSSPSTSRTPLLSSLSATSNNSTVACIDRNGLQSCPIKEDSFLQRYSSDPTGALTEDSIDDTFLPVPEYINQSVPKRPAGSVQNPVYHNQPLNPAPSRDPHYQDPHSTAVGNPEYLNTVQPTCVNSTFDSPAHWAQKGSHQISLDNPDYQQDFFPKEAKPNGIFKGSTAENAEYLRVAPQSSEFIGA
Protocol: as §1, §2

EGFR L858R/T790M/C797S = EGFR L858R/T790M/C797S (Homo sapiens, UniProt P00533, C797S/L858R/T790M); assay: Biochemical EGFR kinase assay (Lance Ultra TR-FRET), L858R/T790M/C797S
Chain of EGFR L858R/T790M/C797S (P00533 25-1210 T790M/C797S/L858R): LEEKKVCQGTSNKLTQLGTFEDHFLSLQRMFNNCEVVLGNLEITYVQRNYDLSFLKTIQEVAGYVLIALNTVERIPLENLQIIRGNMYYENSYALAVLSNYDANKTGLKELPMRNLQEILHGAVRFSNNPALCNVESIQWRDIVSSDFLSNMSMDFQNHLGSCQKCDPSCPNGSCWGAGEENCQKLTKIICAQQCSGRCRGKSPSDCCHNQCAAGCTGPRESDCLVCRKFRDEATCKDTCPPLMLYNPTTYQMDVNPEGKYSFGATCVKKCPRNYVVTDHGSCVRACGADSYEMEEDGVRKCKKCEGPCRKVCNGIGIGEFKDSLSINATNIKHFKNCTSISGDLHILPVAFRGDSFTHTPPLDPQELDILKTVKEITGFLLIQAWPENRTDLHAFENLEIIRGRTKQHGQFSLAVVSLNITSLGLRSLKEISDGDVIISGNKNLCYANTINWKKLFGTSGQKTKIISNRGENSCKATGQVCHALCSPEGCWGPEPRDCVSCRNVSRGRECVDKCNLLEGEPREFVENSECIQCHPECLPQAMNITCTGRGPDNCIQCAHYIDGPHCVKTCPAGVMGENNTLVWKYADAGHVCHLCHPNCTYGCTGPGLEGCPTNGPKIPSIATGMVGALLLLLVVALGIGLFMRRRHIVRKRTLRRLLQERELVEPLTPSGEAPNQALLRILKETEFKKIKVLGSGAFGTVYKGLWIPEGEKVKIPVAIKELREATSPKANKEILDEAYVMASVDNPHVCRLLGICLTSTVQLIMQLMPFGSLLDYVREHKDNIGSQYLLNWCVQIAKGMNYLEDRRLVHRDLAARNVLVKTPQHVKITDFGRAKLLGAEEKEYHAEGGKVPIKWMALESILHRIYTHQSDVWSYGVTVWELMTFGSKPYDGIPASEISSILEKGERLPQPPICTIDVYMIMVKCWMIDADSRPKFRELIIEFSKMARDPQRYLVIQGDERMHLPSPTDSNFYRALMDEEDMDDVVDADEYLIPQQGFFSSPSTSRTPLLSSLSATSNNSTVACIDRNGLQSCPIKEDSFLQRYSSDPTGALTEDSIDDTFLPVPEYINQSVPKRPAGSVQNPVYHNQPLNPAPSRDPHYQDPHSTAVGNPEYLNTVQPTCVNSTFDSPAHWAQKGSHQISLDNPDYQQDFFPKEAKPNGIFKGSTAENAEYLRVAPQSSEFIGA
Protocol: as §1, §2

EGFR wildtype (WT) = EGFR wildtype (WT) (Homo sapiens, UniProt P00533); assay: Biochemical EGFR kinase assay (Lance Ultra TR-FRET), wildtype
Chain of EGFR wildtype (WT) (P00533 25-1210): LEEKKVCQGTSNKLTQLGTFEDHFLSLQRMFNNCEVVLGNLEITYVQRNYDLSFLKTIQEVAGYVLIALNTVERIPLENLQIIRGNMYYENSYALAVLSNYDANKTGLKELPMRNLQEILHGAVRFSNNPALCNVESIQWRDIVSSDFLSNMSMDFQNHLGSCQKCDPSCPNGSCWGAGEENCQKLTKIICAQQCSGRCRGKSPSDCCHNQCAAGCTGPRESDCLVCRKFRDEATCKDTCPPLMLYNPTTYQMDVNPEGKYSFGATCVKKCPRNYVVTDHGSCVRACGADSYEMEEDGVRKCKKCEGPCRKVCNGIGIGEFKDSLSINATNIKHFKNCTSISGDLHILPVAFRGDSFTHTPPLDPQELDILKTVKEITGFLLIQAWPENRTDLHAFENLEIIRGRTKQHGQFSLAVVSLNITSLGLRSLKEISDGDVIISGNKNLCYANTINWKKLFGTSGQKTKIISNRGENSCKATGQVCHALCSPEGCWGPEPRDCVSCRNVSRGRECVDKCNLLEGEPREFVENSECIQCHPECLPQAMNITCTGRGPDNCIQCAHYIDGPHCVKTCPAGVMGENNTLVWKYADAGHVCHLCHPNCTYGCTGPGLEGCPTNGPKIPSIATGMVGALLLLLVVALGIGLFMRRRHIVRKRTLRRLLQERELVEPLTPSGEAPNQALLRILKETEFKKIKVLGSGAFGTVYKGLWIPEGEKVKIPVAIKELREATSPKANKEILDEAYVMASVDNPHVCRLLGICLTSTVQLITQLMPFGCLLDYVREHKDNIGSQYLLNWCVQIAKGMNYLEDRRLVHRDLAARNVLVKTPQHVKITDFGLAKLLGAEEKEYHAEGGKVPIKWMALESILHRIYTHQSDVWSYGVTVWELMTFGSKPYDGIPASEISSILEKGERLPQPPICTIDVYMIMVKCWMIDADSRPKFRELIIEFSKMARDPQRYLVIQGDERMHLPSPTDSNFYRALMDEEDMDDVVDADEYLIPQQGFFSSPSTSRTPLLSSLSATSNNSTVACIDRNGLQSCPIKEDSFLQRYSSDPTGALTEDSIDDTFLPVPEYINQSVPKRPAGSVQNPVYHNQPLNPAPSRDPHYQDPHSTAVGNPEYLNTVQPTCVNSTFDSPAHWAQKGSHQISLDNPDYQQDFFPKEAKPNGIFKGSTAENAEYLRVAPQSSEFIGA
Protocol: as §1, §2

[1] = Km ATP, read-out: IC50 del19/T790M/C797S (nM) Km ATP
[2] = Km ATP, read-out: IC50 del19/C797S (nM) Km ATP
[3] = Km ATP, read-out: IC50 L858R/T790M/C797S (nM) Km ATP
[4] = Km ATP, read-out: IC50 WT (nM) Km ATP

Chain of EGFR del19/T790M/C797S (P00533 with tags, fused parts or gaps DEL746-750/T790M/C797S): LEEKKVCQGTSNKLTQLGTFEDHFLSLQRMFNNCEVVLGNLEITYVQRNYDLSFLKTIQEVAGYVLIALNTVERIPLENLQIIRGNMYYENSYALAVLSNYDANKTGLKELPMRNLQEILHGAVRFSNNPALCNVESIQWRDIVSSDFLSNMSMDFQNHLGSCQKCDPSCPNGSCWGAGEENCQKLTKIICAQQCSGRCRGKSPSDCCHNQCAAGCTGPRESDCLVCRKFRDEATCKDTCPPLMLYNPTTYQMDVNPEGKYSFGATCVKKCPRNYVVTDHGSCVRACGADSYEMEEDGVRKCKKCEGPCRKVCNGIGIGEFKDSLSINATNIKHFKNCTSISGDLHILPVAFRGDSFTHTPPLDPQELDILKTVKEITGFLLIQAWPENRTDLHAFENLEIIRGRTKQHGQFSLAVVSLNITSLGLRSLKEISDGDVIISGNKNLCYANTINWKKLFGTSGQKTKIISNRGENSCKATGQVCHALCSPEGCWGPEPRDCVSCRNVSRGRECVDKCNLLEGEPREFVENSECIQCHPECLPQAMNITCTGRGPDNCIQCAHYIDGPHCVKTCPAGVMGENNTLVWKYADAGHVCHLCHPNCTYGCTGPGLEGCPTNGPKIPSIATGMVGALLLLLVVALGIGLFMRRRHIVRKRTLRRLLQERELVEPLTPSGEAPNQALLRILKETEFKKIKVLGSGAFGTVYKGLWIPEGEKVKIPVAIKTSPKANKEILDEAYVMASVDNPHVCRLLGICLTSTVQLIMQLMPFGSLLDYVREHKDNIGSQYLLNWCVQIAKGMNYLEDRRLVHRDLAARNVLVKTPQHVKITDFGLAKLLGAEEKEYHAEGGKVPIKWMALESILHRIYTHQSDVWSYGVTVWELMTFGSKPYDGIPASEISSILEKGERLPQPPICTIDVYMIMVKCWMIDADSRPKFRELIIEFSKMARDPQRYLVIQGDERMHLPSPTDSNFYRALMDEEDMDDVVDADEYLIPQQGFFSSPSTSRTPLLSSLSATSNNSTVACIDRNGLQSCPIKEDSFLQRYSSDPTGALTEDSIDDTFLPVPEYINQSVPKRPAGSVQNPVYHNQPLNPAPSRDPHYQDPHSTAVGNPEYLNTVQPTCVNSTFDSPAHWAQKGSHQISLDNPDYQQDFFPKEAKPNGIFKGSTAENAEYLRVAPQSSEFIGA

O=C(c1cnc(Nc2ccnc(-c3cnn(S(=O)(=O)C4CC4)c3)n2)cc1NC1CC1)C1CC1 [Example 2, Cyclopropyl(4-(cyclopropylamino)-6-((2-(1-(cyclopropylsulfonyl)-1H-pyrazol-4-yl)pyrimidin-4-yl)amino)pyridin-3-yl)methanone]
IC50 (EGFR del19/T790M/C797S; [1]): 72 nM | IC50 (EGFR del19/C797S; [2]): 536 nM

O=C(c1cnc(Nc2ccnc(-c3cnn(S(=O)(=O)C4CC4)c3)n2)cc1NCCF)C1CC1 [Example 3, Cyclopropyl(6-((2-(1-(cyclopropylsulfonyl)-1H-pyrazol-4-yl)pyrimidin-4-yl)amino)-4-((2-fluoroethyl)amino)pyridin-3-yl)methanone]
IC50 (EGFR del19/T790M/C797S; [1]): 0.9 nM | IC50 (EGFR del19/C797S; [2]): 232 nM | IC50 (EGFR L858R/T790M/C797S; [3]): 5.4 nM | IC50 (EGFR wildtype (WT); [4]): 4200 nM

O=C(c1cnc(Nc2ccnc(-c3cnn(S(=O)(=O)C4CC4)c3)n2)cc1NCCCCF)C1CC1 [Example 4, Cyclopropyl(6-((2-(1-(cyclopropylsulfonyl)-1H-pyrazol-4-yl)pyrimidin-4-yl)amino)-4-((4-fluorobutyl)amino)pyridin-3-yl)methanone]
IC50 (EGFR del19/T790M/C797S; [1]): 1.3 nM | IC50 (EGFR del19/C797S; [2]): 83.6 nM | IC50 (EGFR L858R/T790M/C797S; [3]): 11.6 nM | IC50 (EGFR wildtype (WT); [4]): 2400 nM

O=C(c1cnc(Nc2ccnc(-c3cnn(S(=O)(=O)C4CC4)c3)n2)cc1NCCCC(F)F)C1CC1 [Example 5, Cyclopropyl(6-((2-(1-(cyclopropylsulfonyl)-1H-pyrazol-4-yl)pyrimidin-4-yl)amino)-4-((4,4-difluorobutyl)amino)pyridin-3-yl)methanone]
IC50 (EGFR del19/T790M/C797S; [1]): 1.8 nM | IC50 (EGFR del19/C797S; [2]): 132 nM | IC50 (EGFR L858R/T790M/C797S; [3]): 18 nM | IC50 (EGFR wildtype (WT); [4]): 2970 nM

O=C(c1cnc(Nc2ccnc(-c3cnn(S(=O)(=O)C4CC4)c3)n2)cc1NCCC1CCOC1)C1CC1 (stereo not drawn) [Example 6, Cyclopropyl(6-((2-(1-(cyclopropylsulfonyl)-1H-pyrazol-4-yl)pyrimidin-4-yl)amino)-4-((2-(tetrahydrofuran-3-yl)ethyl)amino)pyridin-3-yl)methanone]
IC50 (EGFR del19/T790M/C797S; [1]): 0.6 nM | IC50 (EGFR del19/C797S; [2]): 78 nM | IC50 (EGFR L858R/T790M/C797S; [3]): 4.5 nM | IC50 (EGFR wildtype (WT); [4]): 890 nM

C[C@H](CCO)Nc1cc(Nc2ccnc(-c3cnn(S(=O)(=O)C4CC4)c3)n2)ncc1C(=O)C1CC1 [Example 7, (R)-Cyclopropyl(6-((2-(1-(cyclopropylsulfonyl)-1H-pyrazol-4-yl)pyrimidin-4-yl)amino)-4-((4-hydroxybutan-2-yl)amino)pyridin-3-yl)methanone]
IC50 (EGFR del19/T790M/C797S; [1]): 0.5 nM | IC50 (EGFR del19/C797S; [2]): 49.2 nM | IC50 (EGFR L858R/T790M/C797S; [3]): 2.7 nM | IC50 (EGFR wildtype (WT); [4]): 426 nM

O=C(c1cnc(Nc2ccnc(-c3cnn(S(=O)(=O)C4CC4)c3)n2)cc1NCC1CCCCO1)C1CC1 (stereo not drawn) [Example 10, Cyclopropyl(6-((2-(1-(cyclopropylsulfonyl)-1H-pyrazol-4-yl)pyrimidin-4-yl)amino)-4-(((tetrahydro-2H-pyran-2-yl)methyl)amino)pyridin-3-yl)methanone]
IC50 (EGFR del19/T790M/C797S; [1]): 2.1 nM | IC50 (EGFR del19/C797S; [2]): 553 nM | IC50 (EGFR L858R/T790M/C797S; [3]): 13.7 nM | IC50 (EGFR wildtype (WT); [4]): 1170 nM

C[C@@H](O)CCNc1cc(Nc2ccnc(-c3cnn(S(=O)(=O)C4CC4)c3)n2)ncc1C(=O)C1CC1 [Example 11, (R)-Cyclopropyl(6-((2-(1-(cyclopropylsulfonyl)-1H-pyrazol-4-yl)pyrimidin-4-yl)amino)-4-((3-hydroxybutyl)amino)pyridin-3-yl)methanone]
IC50 (EGFR del19/T790M/C797S; [1]): 0.4 nM | IC50 (EGFR del19/C797S; [2]): 58.9 nM | IC50 (EGFR L858R/T790M/C797S; [3]): 2.3 nM | IC50 (EGFR wildtype (WT); [4]): 188 nM

CC(O)C(C)(C)Nc1cc(Nc2ccnc(-c3cnn(S(=O)(=O)C4CC4)c3)n2)ncc1C(=O)C1CC1 (stereo not drawn) [Example 12, Cyclopropyl(6-((2-(1-(cyclopropylsulfonyl)-1H-pyrazol-4-yl)pyrimidin-4-yl)amino)-4-((3-hydroxy-2-methylbutan-2-yl)amino)pyridin-3-yl)methanone]
IC50 (EGFR del19/T790M/C797S; [1]): 0.4 nM | IC50 (EGFR del19/C797S; [2]): 58.2 nM | IC50 (EGFR L858R/T790M/C797S; [3]): 0.6 nM | IC50 (EGFR wildtype (WT); [4]): 228 nM

CN(C)CCNc1cc(Nc2ccnc(-c3cnn(S(=O)(=O)C4CC4)c3)n2)ncc1C(=O)C1CC1 [Example 14, Cyclopropyl(6-((2-(1-(cyclopropylsulfonyl)-1H-pyrazol-4-yl)pyrimidin-4-yl)amino)-4-((2-(dimethylamino)ethyl)amino)pyridin-3-yl)methanone]
IC50 (EGFR del19/T790M/C797S; [1]): 4.7 nM | IC50 (EGFR del19/C797S; [2]): 459 nM | IC50 (EGFR L858R/T790M/C797S; [3]): 31.9 nM | IC50 (EGFR wildtype (WT); [4]): 3400 nM

O=C(c1cnc(Nc2ccnc(-c3cnn(S(=O)(=O)C4CC4)c3)n2)cc1NCc1cnn(CCF)c1)C1CC1 [Example 17, Cyclopropyl(6-((2-(1-(cyclopropylsulfonyl)-1H-pyrazol-4-yl)pyrimidin-4-yl)amino)-4-(((1-(2-fluoroethyl)-1H-pyrazol-4-yl)methyl)amino)pyridin-3-yl)methanone]
IC50 (EGFR del19/T790M/C797S; [1]): 10.9 nM | IC50 (EGFR del19/C797S; [2]): 1 nM | IC50 (EGFR L858R/T790M/C797S; [3]): 15.5 nM

O=C(c1cnc(Nc2ccnc(-c3cnn(S(=O)(=O)C4CC4)c3)n2)cc1NCC1CCN(CC2CC2)CC1)C1CC1 [Example 18, Cyclopropyl(4-(((1-(cyclopropylmethyl)piperidin-4-yl)methyl)amino)-6-((2-(1-(cyclopropylsulfonyl)-1H-pyrazol-4-yl)pyrimidin-4-yl)amino)pyridin-3-yl)methanone]
IC50 (EGFR del19/T790M/C797S; [1]): 13.5 nM | IC50 (EGFR del19/C797S; [2]): 1 nM | IC50 (EGFR L858R/T790M/C797S; [3]): 17.2 nM

CN(C)Cc1ccc(CNc2cc(Nc3ccnc(-c4cnn(S(=O)(=O)C5CC5)c4)n3)ncc2C(=O)C2CC2)cn1 [Example 19, Cyclopropyl(6-((2-(1-(cyclopropylsulfonyl)-1H-pyrazol-4-yl)pyrimidin-4-yl)amino)-4-(((6-((dimethylamino)methyl)pyridin-3-yl)methyl)amino)pyridin-3-yl)methanone]
IC50 (EGFR del19/T790M/C797S; [1]): 3.1 nM | IC50 (EGFR del19/C797S; [2]): 159 nM | IC50 (EGFR L858R/T790M/C797S; [3]): 3.8 nM | IC50 (EGFR wildtype (WT); [4]): 682 nM

CC(C)Oc1cc(Nc2ccnc(-c3cnn(S(=O)(=O)C4CC4)c3)n2)ncc1NC(=O)C1CC1 [Example 42, N-(6-((2-(1-(Cyclopropylsulfonyl)-1H-pyrazol-4-yl)pyrimidin-4-yl)amino)-4-isopropoxypyridin-3-yl)cyclopropanecarboxamide]
IC50 (EGFR del19/T790M/C797S; [1]): 1 nM | IC50 (EGFR del19/C797S; [2]): 213 nM | IC50 (EGFR L858R/T790M/C797S; [3]): 10.5 nM | IC50 (EGFR wildtype (WT); [4]): 123 nM

O=C(c1cnc(Nc2ccnc(-c3cnn(S(=O)(=O)C4CC4)c3)n2)cc1NC[C@H]1CC[C@H](Cn2cccn2)CC1)C1CC1 [Example 44, (4-((((1r,4r)-4-((1H-Pyrazol-1-yl)methyl)cyclohexyl)methyl)amino)-6-((2-(1-(cyclopropylsulfonyl)-1H-pyrazol-4-yl)pyrimidin-4-yl)amino)pyridin-3-yl)(cyclopropyl)methanone]
IC50 (EGFR del19/T790M/C797S; [1]): 9 nM | IC50 (EGFR del19/C797S; [2]): 242 nM | IC50 (EGFR wildtype (WT); [4]): 796 nM

CCCNc1cc(Nc2ccnc(-c3cnn(S(=O)(=O)C4CC4)c3)n2)ncc1C(C)=O [Example 45, 1-(6-((2-(1-(Cyclopropylsulfonyl)-1H-pyrazol-4-yl)pyrimidin-4-yl)amino)-4-(propylamino)pyridin-3-yl)ethan-1-one]
IC50 (EGFR del19/T790M/C797S; [1]): 0.9 nM | IC50 (EGFR del19/C797S; [2]): 205 nM | IC50 (EGFR L858R/T790M/C797S; [3]): 3.1 nM | IC50 (EGFR wildtype (WT); [4]): 751 nM

CN(C)CCNC1CCC(Nc2cc(Nc3ccnc(-c4cnn(S(=O)(=O)C5CC5)c4)n3)ncc2C(=O)C2CC2)CC1 (stereo not drawn) [Example 53, Cyclopropyl(6-((2-(1-(cyclopropylsulfonyl)-1H-pyrazol-4-yl)pyrimidin-4-yl)amino)-4-((4-((2-(dimethylamino)ethyl)amino)cyclohexyl)amino)pyridin-3-yl)methanone]
IC50 (EGFR del19/T790M/C797S; IC50 del19/T790M/C797S (nM) 100 μM ATP, 100 μM ATP): 0.5 nM | IC50 (EGFR del19/C797S; IC50 del19/C797S (nM) 100 μM ATP, 100 μM ATP): 1.8 nM | IC50 (EGFR L858R/T790M/C797S; IC50 L858R/T790M/C797S (nM) 100 μM ATP, 100 μM ATP): 0.5 nM | IC50 (EGFR wildtype (WT); IC50 WT (nM) 100 μM ATP, 100 μM ATP): 1900 nM

CN(C)CC1CCC(CNc2cc(Nc3ccnc(-c4cnn(C5CCOC5)c4)n3)ncc2C(=O)C2CC2)CC1 (stereo not drawn) [Example 62, Cyclopropyl(4-((((1r,4r)-4-((dimethylamino)methyl)cyclohexyl)methyl)amino)-6-((2-(1-(tetrahydrofuran-3-yl)-1H-pyrazol-4-yl)pyrimidin-4-yl)amino)pyridin-3-yl)methanone]
IC50 (EGFR del19/T790M/C797S; [1]): 9.8 nM | IC50 (EGFR del19/C797S; [2]): 363 nM | IC50 (EGFR L858R/T790M/C797S; [3]): 9.4 nM

CC(C)Nc1cc(Nc2ccnc(-c3cnn(S(=O)(=O)C4CC4)c3)n2)ncc1C(=O)NCC(F)F [Example 78, 6-((2-(1-(Cyclopropylsulfonyl)-1H-pyrazol-4-yl)pyrimidin-4-yl)amino)-N-(2,2-difluoroethyl)-4-(isopropylamino)nicotinamide]
IC50 (EGFR del19/T790M/C797S; [1]): 14.9 nM | IC50 (EGFR del19/C797S; [2]): 225 nM | IC50 (EGFR wildtype (WT); [4]): 1140 nM

CN(C)C[C@H]1CC[C@H](CNc2cc(Nc3ccnc(-c4cnn(S(=O)(=O)C5CC5)c4)n3)ncc2C(=O)N2CC(F)(F)C2)CC1 [Example 82, (6-((2-(1-(Cyclopropylsulfonyl)-1H-pyrazol-4-yl)pyrimidin-4-yl)amino)-4-((((1r,4r)-4-((dimethylamino)methyl)cyclohexyl)methyl)amino)pyridin-3-yl)(3,3-difluoroazetidin-1-yl)methanone]
IC50 (EGFR del19/T790M/C797S; [1]): 2.8 nM | IC50 (EGFR del19/C797S; [2]): 24.6 nM | IC50 (EGFR wildtype (WT); [4]): 76.2 nM

Reference: patent US11945798B2, “Substituted aminopyridine compounds as EGFR inhibitors” (YUHAN CORPORATION, priority 2021, dated 2024)
